Measured values: patent US8685372B2, “Peptides and aptamers for targeting of neuron or nerves” (The Regents of the University of California, priority 2009, dated 2014)
Entries after “also recorded” stand apart in the source; their conditions may differ. Values belong to the substance of their own block, whether it stands above or below them. No end group written: not given here. heptamethinecyanine derivative = not defined here; Cy5 = Cy5 cyanine fluorescent dye label; 5,6FAM = 5(6)-carboxyfluorescein label

What was measured:
[1] = tested on: sciatic nerves; experiment: In vivo nerve labeling with fluorescently labeled peptides (nerve versus adjacent non-nerve tissue); set-up: species or system mice; settings: for Nerve contrast: derivatives of peptide SEQ ID NO: 4; for nerve to muscle contrast: FAM-labeled peptides intravenously, living mice, after wash-out
Description: To test the nerve binding affinity of each of the isolated peptide sequences in vivo, carboxyfluorescein (FAM)-labeled peptides were injected intravenously into living mice. Following a wash-out period, the contrast between nerve and muscle binding of the labeled peptides was evaluated.
Wild-type albino C57BL6 (Jackson Laboratory) or SKH1 (Charles River Laboratories) mice were treated intravenously with 150 nmoles of fluorescently labeled SEQ ID NO:4 via tail vein injection. Following a 2-3 hour wash-out period for SEQ ID NO:25 or 5-6 hours for SEQ ID NO:31, mice were anesthetized with ketamine and midazolam (80 mg/kg intraperitoneally), a skin incision was made over the dorsal surface of the hind, legs and the sciatic nerves exposed bilaterally. […] Nerves and adjacent non-nerve tissue was delineated with Image J and relative fluorescence was measured. Following background subtraction using dark current measurements and measurements of a standard, the ratios of peptide binding to nerve versus adjacent non-nerve tissue were calculated.

[2] = tested on: sciatic nerve; experiment: Histology: localization of binding in nerves of thy1-YFP transgenic mice; type: in vivo
Description: To evaluate the localization of SEQ ID NO:4 binding in nerves, we treated thy1-YFP transgenic mice whose axons are genetically encoded with YFP under a neuron specific promoter (Feng et al, Imaging neuronal subsets in transgenic mice expressing multiple spectral variants of GFP. Neuron, 2000) with SEQ ID NO:31. […] These deeper nerve structures were not easily seen either with brightfield (FIG. 5A, insert) or YFP (FIG. 5B, insert) imaging. To evaluate the localization of SEQ ID NO:4 binding on a cellular level, we imaged cryosections (3-5 μm) of nerves and attached muscles from thy1-YFP animals treated with SEQ ID NO:31.

[3] = Peptide biodistribution and metabolism (organ fluorescence, LC-MS and MALDI of urine); type: in vivo, mice
Description: (§1) To evaluate the biodistribution of the peptide following systemic administration, organs were harvested from mice treated with SEQ ID NO:4 and fluorescence uptake was evaluated. […] To evaluate the metabolism of the peptide as it passed through the renal system, liquid chromatography-mass spectrometry (LC-MS, Agilent) tracing was used to compare urine obtained from mice injected with SEQ ID NO:25 or SEQ ID NO:31 intravenously versus urine from normal mice spiked with the native SEQ ID NO:25 or SEQ ID NO:31. […] Next, matrix-assisted. laser desorption/ionization (MALDI) was used to evaluate the nature of the modification to the peptide as it was metabolized.
as §1, with “NO:25 and” for “NO:25 or”, “ID NO:3” for “ID NO:31”, “ID NO:25.” for “ID NO:25 or SEQ ID NO:31.”, “Next, matrix-assisted” for “Next, matrix-assisted.”

[4] = tested on: dissected nerve tissue; experiment: In vitro nerve binding: dissected nerve tissue incubated with peptide; set-up: species or system mice; settings: 100 nM peptide, one hour incubation
Description: To test the nerve binding affinity of each of the isolated peptide sequences in vitro, dissected nerve tissue was removed from mice and incubated for one hour with 100 nM of each peptide, including a control peptide made up of amino acids that were contained within the various phages selected and sequenced, but in a mixed-up order and designed without repeating any single amino acid except for glycine (which was added to the C-terminus as a flexible linker).

labeling of nerves genetically encoded with YFP ([2]; Cy5 fluorescence versus YFP and brightfield): precisely labels nerves | tissue penetration compared to imaging in the visible range ([2]; mouse, in vivo): deeper tissue penetration
Substance: ACETYL-SHSNTQTLAKAPEHTG-(L-cys)-(Cy5)-amide (Ac-SHSNTQTLAKAPEHTGC(Cy5)-NH2; also: Cy5 on C-terminal Cys, attachment site not given here) [SEQ ID NO:31]
Nerve contrast [1]: Medium/High | localization of labeling within nerve ([2]; cryosections of nerves): most localized to the epineurium of the nerves with some labeling of the perineurium and endoneurium; also recorded: labeling of epineurium, perineurium and endoneurium | native peptide detectable in urine of intravenously injected mice ([3]; LC-MS): none | only fluorescently labeled entity identified in urine ([3]; MALDI): cysteine-Cy5

Substance: AHHNSWKAKHHS (peptide that specifically binds to a neuron, nerve, or component of either) [SEQ ID NO:1]
nerve to muscle contrast [1]: little significant nerve-to muscle contrast | uptake/binding to dissected nerve tissue compared to no peptide or control peptide [4]: two-fold increase over control to no difference from control

Substance: DFTKTSPLGIH (peptide that specifically binds to a neuron, nerve, or component of either) [SEQ ID NO:5]
nerve to muscle contrast [1]: exhibited nerve to muscle contrast, although at a lower level than that of SEQ ID NO:4 | uptake/binding to dissected nerve tissue compared to no peptide or control peptide [4]: two-fold increase over control to no difference from control

Substance: Free amine- SHSNTQTLAKAPEHTG-(L-cys)-(5,6FAM)-amide (H-SHSNTQTLAKAPEHTGC(5,6FAM)-NH2; not fully specified) [SEQ ID NO: 47]
Nerve contrast [1]: Medium/High

Substance: KSLSRHDHIHHH (peptide that specifically binds to a neuron, nerve, or component of either) [SEQ ID NO:3]
nerve to muscle contrast [1]: exhibited nerve to muscle contrast, although at a lower level than that of SEQ ID NO:4 | uptake/binding to dissected nerve tissue compared to no peptide or control peptide [4]: two-fold increase over control to no difference from control

Substance: acetyl- SHSNTQTLAKAPEHTG(L-cys)(5,6FAM)-amide (Ac-SHSNTQTLAKAPEHTGC(5,6FAM)-NH2; not fully specified) [SEQ ID NO: 46]
Nerve contrast [1]: Medium/High

Substance: acetyl- SHSNTQTLAKAPEHTG-(D-cys)-(5,6FAM)-amide (Ac-SHSNTQTLAKAPEHTG; not fully specified (C-terminus); also: 5,6FAM on C-terminal D-Cys, attachment site not given here)
Nerve contrast [1]: Medium

Substance: acetyl- SHSNTQTLAKAPEHTG-(D-cys)-(cy5)-amide (Ac-SHSNTQTLAKAPEHTG; not fully specified (C-terminus))
Nerve contrast [1]: Medium

Substance: acetyl- SHSNTQTLAKAPEHTG-(L-cys)-(IR800CW) (Ac-SHSNTQTLAKAPEHTGC(IR800CW); not fully specified) [SEQ ID NO: 48]
Nerve contrast [1]: Low

Substance: acetyl- SHSNTQTLAKAPEHTG-(L-cys)-(Texas Red)-amide (Ac-SHSNTQTLAKAPEHTGC(Texas Red)-NH2) [SEQ ID NO: 50]
Nerve contrast [1]: Medium

Substance: acetyl- SHSNTQTLAKAPEHTG-(L-cys)-(heptamethinecyanine derivative) (Ac-SHSNTQTLAKAPEHTGC(heptamethinecyanine derivative); not fully specified; reading uncertain) [SEQ ID NO: 52]
Nerve contrast [1]: Low

Substance: acetyl- SHSNTQTLAKAPEHTG-(L-cys)-(indocyanine green derivative) [SEQ ID NO: 51]
Nerve contrast [1]: Low

Substance: acetyl- SHSNTQTLAKAPEHTG-(L-cys-)-(TAMRA)-amide (Ac-SHSNTQTLAKAPEHTGC(TAMRA)-NH2) [SEQ ID NO: 49]
Nerve contrast [1]: Medium
